The source of these data is ChEMBL document CHEMBL1152652, “Bioorganic synthesis of end-capped anti-HIV peptides by simultaneous cyanocysteine-mediated cleavages of recombinant proteins” (Bioorg Med Chem, 2009).

pEC50: −log10 of the molar value. Where a SMILES comes first, the peptide text is derived from it. The star is where a group is joined. NH(2-oxoazepan-3S-yl) = O=C1NCCCC[C@@H]1N*; Aspartimide = O=C1C[C@H](N*)C(=O)N1; X1 = N=C1N[C@H](C(=O)*)CS1

The test system of one data set is Serum. The experiment in a line: Metabolic stability in 50% mouse serum assessed as degradation after 24 hrs. Type of data set: ADME, cell-free.
In data set [1] the test system is Human immunodeficiency virus 1. The experiment in a line: Antiviral activity against HIV1 NL4-3 infected in human HeLa cells assessed as inhibition of replication after 48 hrs by MAGI assay. In kind it is functional, organism-based. Particulars: Human immunodeficiency virus 1, NL4-3, HeLa.
A further data set concerns HeLa. The experiment in a line: Cytotoxicity against human HeLa cells after 48 hrs up to 10 uM by MAGI assay. Type of data set: cell-based.

One may read the pEC50 as the negative decadic logarithm of the EC50, by convention in mol/L. On to `CC[C@H](C)[C@H](NC(=O)[C@H](CC(C)C)NC(=O)[C@H](CCC(=O)O)NC(=O)[C@H](CCC(=O)O)NC(=O)[C@@H](NC(=O)[C@H](CCCCN)NC(=O)[C@H](CCCCN)NC(=O)[C@@H](NC(=O)[C@H](Cc1ccc(O)cc1)NC(=O)[C@H](CCC(=O)O)NC(=O)[C@H](CCC(=O)O)NC(=O)[C@@H](NC(=O)[C@H](CCCCN)NC(=O)[C@H](CCCNC(=N)N)NC(=O)[C@H](CC(=O)O)NC(=O)[C@H](Cc1c[nH]c2ccccc12)NC(=O)[C@H](CCC(=O)O)NC(=O)[C@H](CCSC)NC(=O)[C@H](Cc1c[nH]c2ccccc12)NC(=O)[C@@H]1CSC(=N)N1)[C@@H](C)CC)[C@@H](C)O)[C@@H](C)CC)C(=O)N[C@@H](CCCCN)C(=O)N[C@@H](CCCCN)C(=O)N[C@@H](CO)C(=O)N[C@@H](CCC(N)=O)C(=O)N[C@@H](CCC(=O)O)C(=O)N[C@@H](CCC(N)=O)C(=O)N[C@@H](CCC(N)=O)C(=O)N[C@@H](CCC(=O)O)C(=O)N[C@@H](CCCCN)C(=O)N[C@@H](CC(N)=O)C(=O)N[C@@H](CCC(=O)O)C(=O)N[C@@H](CCCCN)C(=O)N[C@@H](CCC(=O)O)C(=O)N[C@@H](CC(C)C)C(=O)N[C@@H](CCCCN)C(=O)N[C@H]1CCCCNC1=O` (X1-WMEWDRKIEEYTKKIEELIKKSQEQQEKNEKELK-{NH(2-oxoazepan-3S-yl)}), for which the Activity result in the data set with Serum is “Stable”; in the data set on HeLa it was “Non-toxic”. For the same compound, in data set [1], the pEC50 is 9.24.

Regarding `CC[C@H](C)[C@H](NC(=O)[C@H](CC(C)C)NC(=O)[C@H](CCC(=O)O)NC(=O)[C@H](CCC(=O)O)NC(=O)[C@@H](NC(=O)[C@H](CCCCN)NC(=O)[C@H](CCCCN)NC(=O)[C@@H](NC(=O)[C@H](Cc1ccc(O)cc1)NC(=O)[C@H](CCC(=O)O)NC(=O)[C@H](CCC(=O)O)NC(=O)[C@@H](NC(=O)[C@H](CCCCN)NC(=O)[C@H](CCCNC(=N)N)NC(=O)[C@H](CC(=O)O)NC(=O)[C@H](Cc1c[nH]c2ccccc12)NC(=O)[C@H](CCC(=O)O)NC(=O)[C@H](CCSC)NC(=O)[C@H](Cc1c[nH]c2ccccc12)NC(=O)[C@@H]1CSC(=N)N1)[C@@H](C)CC)[C@@H](C)O)[C@@H](C)CC)C(=O)N[C@@H](CCCCN)C(=O)N[C@@H](CCCCN)C(=O)N[C@@H](CO)C(=O)N[C@@H](CCC(N)=O)C(=O)N[C@@H](CCC(=O)O)C(=O)N[C@@H](CCC(N)=O)C(=O)N[C@@H](CCC(N)=O)C(=O)N[C@@H](CCC(=O)O)C(=O)N[C@@H](CCCCN)C(=O)N[C@@H](CC(N)=O)C(=O)N[C@@H](CCC(=O)O)C(=O)N[C@@H](CCCCN)C(=O)N[C@@H](CCC(=O)O)C(=O)N[C@@H](CC(C)C)C(=O)N[C@@H](CCCCN)C(=O)N[C@H]1CC(=O)NC1=O` (X1-WMEWDRKIEEYTKKIEELIKKSQEQQEKNEKELK-Aspartimide), the Activity result is given as “Unstable” in the data set on Serum and “Non-toxic” with HeLa. Also, the negative logarithm of the EC50 (pEC50) in data set [1] is 9.32.

In the case of H-WMEWDRKIEEYTKKIEELIKKSQEQQEKNEKELK-OH, the pEC50 in data set [1] was 9.17.

On to “Ac-WMEWDRKIEEYTKKIEELIKKSQEQQEKNEKELK-NH2”, for which the pEC50 in data set [1] was 9.22.
